US20230192799A1, “CNP Variants and Conjugates Thereof” (BIOMARIN PHARMACEUTICAL INC., priority 2019, published 2023)
Numbered stars: 1 amine (or outer) side, 2 acyl side, 3 side chain; on linkers, the order of the positions; unused ones are H or OH. Bridge positions count the residues as written; N and C are the ends. Side chains are listed from the residue outwards. Peptide text beside a SMILES is read from it. * marks the point of attachment. ξ: configuration not given here. C18 diacid = O=C(O)CCCCCCCCCCCCCCCCC(=O)*; ξγGlu = O=C(O)C(CCC(=O)[*:2])N[*:1]; AEEA = NCCOCCOCC(=O)O

Assays:
[1] = Stability of CNP variants by RP-HPLC, 10 days in PBS; assay type: physicochemical; conditions: for T0, % (% variant detected at T0): T0 (0 days); for T10, % (% variant detected at T10): T10 (10 days) in PBS, pH 7.4, at 37° C.
[2] = system: NPR2+/− rat chondrosarcoma cell model (heterozygous NPR2 knockout cells); assay: cGMP stimulation assay in NPR2 mutant RCS cells; assay type: cell-based
Protocol: To determine the effects of CNP on subjects with short stature resulting from NPR2 mutations, cellular models of NPR2 mutations were developed. […] Rat chondrosarcoma (RCS) cells having either a knockout of, or heterozygous loss of function mutations in, the NPR2 gene were made by RNP transfection into RCS cells using 125 ng NPR2 variants or wild-type NPR2 plasmid DNA transfected into RCS or HEK293 cells. Single cell clones were seeded and genotyped by Sanger sequencing.
The NPR2 clones were created by creating insertions and deletions in the first exon of NPR2 in RCS cells. […] NPR2 mutant cells were tested for activity in response to CNP administration by a cGMP stimulation assay using a Catch Point Cyclic-GMP Fluorescent Assay after treatment with 6 nM of Pro-Gly CNP37. RCS (rat chondrosarcoma) cells were seeded at 40,000 cells/well in RCS culture media: DMEM+10% FBS+1× Pen Strep.

[3] = system: mice deficient in Nf1 in type II collagen producing cells; conditions: daily injections; cited from earlier work
[4] = system: mouse model of Cardiofaciocutaneous syndrome using a Braf mutation (p.Q241R); conditions: in vivo; cited from earlier work
[5] = system: cGMP production in NIH3T3 cells and HEK293 cells; assay: cGMP stimulation assay (CatchPoint Cyclic-GMP Fluorescent Assay); assay type: cell-based; conditions: peptide at T0, 7-point dose curve 100 nM to 0.0064 nM
[6] = Stability of CNP variants or conjugates in human plasma (LC-MS/MS); assay type: in vitro ADME
Protocol: Stability of different CNP variants or CNP conjugates were tested for stability in human plasma over a 24 hour period. Briefly, a C18 fatty acid was fused to gamma glutamic acid using 2 OEG spacers (see e.g., Lau et al., J. Med. Chem 58:7370-7380, 2015). For the chromatography, Waters UPLC H-Class connected with BEH C18 1.7 um, 2.1×150 mm; Mobile Phase A: 1% DMSO 0.1% Formic Acid in Water; Mobile Phase B: 1% DMSO 0.1% Formic Acid in CAN. Mass Spectrometry was carried out using an AB Sciex QTRAP.
each CNP variant was prepared at 200 nM in Human Plasma Li Heparin and samples Incubated at 37° C. 5% CO2. The reaction was quenched at 0, 1, 2, 4, 8, 24 hours with 0.5M Sodium Citrate pH 4. Plasma proteins were precipitated with 0.2% Formic Acid in MeOH and samples prepared using WCX 96-well uElution plate and analyzed by LC-MS/MS 6500.
Stability of different conjugates was also analyzed at varying conditions. Briefly, the same protocol as above was used at 37° C. (control), 37° C.+0.5M NaCl, 37° C.+protease inhibitors or 4° C.

| T0, % (% variant detected at T0) [1] [%] | T10, % (% variant detected at T10) [1] [%] | Molecule | also measured |
| --- | --- | --- | --- |
| 92 | 77 | PGQEHPQARRYRGAQRRGLSRGCFGLKLDRIGSMSGLGC [CNP-9] | – |
| 91 | 88 | PGQEHPQARRYRGAQRRGLSRGCFGLKLDRIGSMSGLGC [CNP-8] | – |
| 77 | 53 | PGQEHPNARRYRGANRRGLSRGCFGLKLDRIGSMSGLGC [CNP-7] | – |
| 83 | 47 | PGQEHPNARKYKGANKKGLSKGCFGLKLDRIGSMSGLGC [CNP-5] | – |
| – | – | C-type natriuretic peptide [CNP] | rescue of NPR2 signaling ([2]; cell model of NPR2 haploinsufficiency, exogenous CNP): dose-dependent rescue; ERK phosphorylation [3]: decreased ERK phosphorylation; short stature [3]: corrected the short stature; body length [4]: increases in body length |
| 76.7 | 39.5 | CC[C@H](C)[C@@H]1NC(=O)[C@H](CCCNC(=N)N)NC(=O)[C@H](CC(=O)O)NC(=O)[C@H](CC(C)C)NC(=O)[C@H](CCCCN)NC(=O)[C@H](CC(C)C)NC(=O)CNC(=O)[C@H](Cc2ccccc2)NC(=O)[C@@H](NC(=O)CNC(=O)[C@H](CCCCN)NC(=O)[C@H](CO)NC(=O)[C@H](CC(C)C)NC(=O)CNC(=O)[C@H](CCCCN)NC(=O)[C@H](CCCCN)NC(=O)[C@H](CC(N)=O)NC(=O)[C@H](C)NC(=O)CNC(=O)[C@H](CCCCN)NC(=O)[C@H](Cc2ccc(O)cc2)NC(=O)[C@H](CCCCN)NC(=O)[C@H](CCCNC(=N)N)NC(=O)[C@H](C)NC(=O)[C@H](CC(N)=O)NC(=O)[C@@H]2CCCN2C(=O)[C@H](Cc2c[nH]cn2)NC(=O)[C@H](CCC(=O)O)NC(=O)[C@H](CCC(N)=O)NC(=O)CNC(=O)[C@@H]2CCCN2)CSSC[C@@H](C(=O)O)NC(=O)CNC(=O)[C@H](CC(C)C)NC(=O)CNC(=O)[C@H](CO)NC(=O)[C@H](CCSC)NC(=O)[C@H](CO)NC(=O)CNC1=O [Pro-Gly CNP37] | EC50 [5]: 1.7 nM; stability in human plasma at varying conditions ([6]; 37° C. (control), 37° C.+0.5M NaCl, 37° C.+protease inhibitors or 4° C. (FIG. 3)): greater stability compared to other variants; proteolysis in human plasma ([6]; human plasma, varying conditions (FIG. 3)): prone to proteolysis; cGMP readout ([2]; NPR2+/− rat chondrosarcoma cells, 6 nM of peptide (FIG. 4)): rescues cGMP readout |
| 90 | 58 | PGQEHPNARRYRGANRRGLSRGCFGLKLDRIGSMSGLGC [CNP-6] | – |
| – | – | CC[C@H](C)[C@@H]1NC(=O)[C@H](CCCNC(=N)N)NC(=O)[C@H](CC(=O)O)NC(=O)[C@H](CC(C)C)NC(=O)[C@H](CCCCNC(=O)COCCOCCNC(=O)COCCOCCNC(=O)CCC(NC(=O)CCCCCCCCCCCCCCCCC(=O)O)C(=O)O)NC(=O)[C@H](CC(C)C)NC(=O)CNC(=O)[C@H](Cc2ccccc2)NC(=O)[C@@H](NC(=O)CNC(=O)[C@H](CCCNC(=N)N)NC(=O)[C@H](CO)NC(=O)[C@H](CC(C)C)NC(=O)CNC(=O)[C@H](CCCNC(=N)N)NC(=O)[C@H](CCCNC(=N)N)NC(=O)[C@H](CCC(N)=O)NC(=O)[C@H](C)NC(=O)CNC(=O)[C@H](CCCNC(=N)N)NC(=O)[C@H](Cc2ccc(O)cc2)NC(=O)[C@H](CCCNC(=N)N)NC(=O)[C@H](CCCNC(=N)N)NC(=O)[C@H](C)NC(=O)[C@H](CCC(N)=O)NC(=O)[C@@H]2CCCN2C(=O)[C@H](Cc2c[nH]cn2)NC(=O)[C@H](CCC(=O)O)NC(=O)[C@H](CCC(N)=O)NC(=O)CNC(=O)[C@@H]2CCCN2C(C)=O)CSSC[C@@H](C(=O)O)NC(=O)CNC(=O)[C@H](CC(C)C)NC(=O)CNC(=O)[C@H](CO)NC(=O)[C@H](CCSC)NC(=O)[C@H](CO)NC(=O)CNC1=O (stereo partly drawn) [lipidated conjugate] (Ac-PGQEHPQARRYRGAQRRGLSRGCFGLK([AEEA-AEEA-ξγGlu-C18 diacid])LDRIGSMSGLGC-OH; disulfide 23-39) | stability in plasma ([6]; human plasma, 200 nM, 37° C., over 24 hrs (FIG. 2)): improved stability in plasma compared to PEGylated or non-conjugated peptides |
